Laboratory results published in patent publication US20230302036A1, “COMPOSITIONS FOR TREATMENT OF SPINAL MUSCULAR ATROPHY” (priority 2020, published 2023).

Test system: SMA mice (Smn-/-; SMN2 2TG/0)
Assay: Growth curves (body weight gain) of severe SMA mice
Format: in vivo, mouse
Details: ASO1 at P0 and P1 and/or VPA 10 µg/g s.c.
Procedure: Kaplan-Meier survival plot (FIG. 4A) and growth curves (FIG. 4B) of SMA mice, following subcutaneous administration at P0 and P1 of 16.8 µg ASO1 (n=18) or saline (n=14), one subcutaneous dose before P3 of 10 µg per g of body weight VPA (n=12), or both treatments together (n=20). ASO1-treated Smn^+/- heterozygote littermates (n=15) served as controls. Scramble (Ctrl) (n=12, 40 trials), VPA (n=13, 50 trials), ASO1 (n=11, 50 trials), ASO1 + VPA (n=17, 68 trials), and untreated heterozygotes (n=12, 36 trials). Statistical significance was analyzed by two-way repeated measures ANOVA. P < 0.05 was considered statistically significant; data are represented as mean + SD. In the righting-reflex test, the time it took a mouse to right itself […] on a flat surface was measured. In the grip-strength test, the angle at which the pups fell from a tablet with a rough to which they held on by their forelimbs was measured.
FIGS. 7A-H show ASO1 and TSA combined treatment in mice. Kaplan-Meier survival plot (FIG. 7A) and growth curves (FIG. 7B) of SMA mice after subcutaneous administration at P0 and P1 of 16.8 µg ASO1 (n=20) or vehicle (n=12), one subcutaneous dose of 10 µg per g of body weight TSA (n=15) at P2, or both treatments together (n=24), are shown. ASO1-treated heterozygotes (n=18) served as controls. Statistical significance was analyzed by two-way repeated measures ANOVA. […]

## CCCC(CCC)C(=O)O [VPA, valproic acid]
  body weight gain in the surviving mice: lack of an effect per se
